One assay addresses T1, human pancreatic lipase (Homo sapiens, UniProt P16233).
T1 construct: Human pancreatic juice was obtained from a patient with acute pancreatitis; from tissue; host or cells: human pancreatic juice from the cannulated duct of a patient with acute pancreatitis; gift of Dr. George Nardi, Massachusetts General Hospital
T1 sequence (P16233 17-465): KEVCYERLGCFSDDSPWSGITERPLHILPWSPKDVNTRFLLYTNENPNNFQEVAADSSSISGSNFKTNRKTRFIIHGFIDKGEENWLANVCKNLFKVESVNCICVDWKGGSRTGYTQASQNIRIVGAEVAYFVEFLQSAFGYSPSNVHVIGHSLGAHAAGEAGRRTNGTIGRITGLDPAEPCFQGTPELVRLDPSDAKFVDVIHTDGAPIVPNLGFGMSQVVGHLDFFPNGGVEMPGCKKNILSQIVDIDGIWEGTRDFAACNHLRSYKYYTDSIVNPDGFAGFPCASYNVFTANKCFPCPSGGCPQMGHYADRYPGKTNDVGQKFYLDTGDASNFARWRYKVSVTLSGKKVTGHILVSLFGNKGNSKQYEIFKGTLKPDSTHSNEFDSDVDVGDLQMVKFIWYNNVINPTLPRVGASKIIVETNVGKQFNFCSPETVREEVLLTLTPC
Put plainly: In vitro titrimetric (Radiometer pH-stat) pancreatic lipase assay, Dixon plots. Conditions: in vitro Radiometer assay, read-out: Inhibition constants for bromolasalocid inhibition of human pancreatic lipase. It is filed as biochemical.

Assay [1] deals with fatty acid synthesis in isolated hepatocytes. Put plainly: In vitro fatty acid synthesis in isolated hepatocytes. It is filed as cell-based, Charles River female rat. Conditions: Rattus norvegicus, Hepatocyte, 1 h, pH 7.4; for activity at 500 µM: 0.5 mM; for activity at 1000 µM: 1.0 mM. The procedure: Hepatocytes were prepared from meal-fed Charles River female rats as described previously, [A. C. Sullivan, J. Triscari, J. G. Hamilton and J. A. Ontko (1977). Hypolipidemic activity of (-)-hydroxycitrate, Lipids, 12: 1-9]. Briefly, rats were anesthetized with Nembutal, livers were perfused in situ and hepatocytes were isolated in Krebs-Henseleit bicarbonate buffer, pH 7.4. Incubations with isolated hepatocytes were performed in triplicate at 37° C. Each incubation flask contained in a total volume of 2.1 ml, 10.5 mg cells (dry weight), 1 ml of Krebs-Henseleit buffer, pH 7.4, radioactive substrate (1 μCi [U-^14 C]alanine, 1 mCi^3 H2 O and 1 μmole alanine) and 0.3% glucose. The appropriate concentration of inhibitor was prepared in dimethylsulfoxide and added to the incubation flask. Dimethylsulfoxide had no effect on fatty acid synthesis. ^3 H2 O was used to determine the total rate of fatty acid synthesis independently of carbon precursors of acetyl CoA. [^14 C]alanine was used as an acetyl CoA precursor. Rates of fatty acid synthesis were determined as described previously, [A. C. Sullivan, J. Triscari, J. G. Hamilton and J. A. Ontko (1977). Hypolipidemic activity of (-)-hydroxycitrate, Lipids, 12: 1-9]. Data are expressed as nmoles ^3 H2 O or [^14 C]alanine converted into fatty acids per mg dry weight cells in 60 minutes.

A further assay concerns the target T2, pancreatic lipase (Rattus norvegicus, UniProt P27657).
T2 construct: stimulated to release pancreatic proteins by addition of 10^-5 M carbachol; from tissue; host or cells: pancreatic lobules of fasted Charles River female rats; released pancreatic juice, centrifuged
T2 sequence (P27657 17-465): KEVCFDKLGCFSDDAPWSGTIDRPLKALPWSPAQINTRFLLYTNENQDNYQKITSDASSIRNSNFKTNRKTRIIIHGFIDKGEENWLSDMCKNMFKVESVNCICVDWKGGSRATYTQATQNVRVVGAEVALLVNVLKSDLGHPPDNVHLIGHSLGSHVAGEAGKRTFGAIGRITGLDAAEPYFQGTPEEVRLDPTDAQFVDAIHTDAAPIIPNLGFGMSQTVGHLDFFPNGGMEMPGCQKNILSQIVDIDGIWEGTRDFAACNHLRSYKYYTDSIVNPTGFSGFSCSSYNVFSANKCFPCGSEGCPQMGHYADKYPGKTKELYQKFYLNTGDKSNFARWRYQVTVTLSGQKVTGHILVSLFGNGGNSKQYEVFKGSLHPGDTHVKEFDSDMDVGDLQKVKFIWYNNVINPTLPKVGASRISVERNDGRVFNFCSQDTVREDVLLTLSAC
Put plainly: In vitro pancreatic lipase screen ([14C]-triolein assay). Type of assay: biochemical. Conditions: read-out: Pancreatic Lipase Activity I50. How it is done: The method for assaying pacreatic lipase in vitro using [^14 C]-triolein was based on the method of Garfinkel and Schotz for lipoprotein lipase, [A. S. Garfinkel and M. C. Schotz (1972). […] Glycerol tri[1-^14 C]oleate (32 mM) was emulsified in 0.2 M Tris-HCl pH 8 containing 0.15 M NaCl, bovine serum albumin (15 mg/ml) and sodium taurocholate (1.4 mM) by sonication for three, one min intervals at 80 watts. Final assay volume was 1.0 ml. The reaction was initiated by the addition of enzyme and was allowed to proceed for 10 min. The reaction was linear for up to 20 min. The liberated free fatty acids were extracted into 0.1 M KOH and quantitated in a liquid scintillation counter using 2,5-bis-2-(5-tertbutylbenzoxazolyl)-tniophene (BBOT) scintillation fluid (Yorktown Research, South Hackensack, N.J.).
Ionophores were added to the above assay as solutions in either 90% ethanol or water, pH 8; 90% ethanol had no effect on the enzyme activity assayed by either method.

Assay [2] concerns intestinal absorption of triglycerides (corn oil). Put plainly: In vivo absorption of triglycerides (corn oil absorption).
The subject of assay [3] is hepatic fatty acid synthesis. Kind of assay: In vivo hepatic fatty acid synthesis in meal-fed rats. The settings on record: 60 mg/kg i.p., sodium salt, mean ± SE. On the set-up: species or system Charles River rat. The procedure:
(§1) In the following examples, female rats (Charles River CD strain, 180-200 g) were housed individually in wire bottom cages in a temperature (22°) and light (12 hr light and 12 hr dark) regulated room. They had free access to Purina Rodent Chow and water.

Assay [4] concerns meal-fed Charles River rats. Put plainly: Food consumption and serum parameters in meal-fed rats (in vivo fatty acid synthesis experiments). On the set-up: species or system Charles River rat. Conditions: 60 mg/kg i.p., sodium salt, mean ± SE. How it is done: as §1
Faster enzymatic procedure for serum triglycerides, Clinical Chemistry, 21: 1983-1985], cholesterol, [C. C. Allain, L. Poon, S. G. Chan, W. Richmond and P. Fu (1974). Enzymatic determination of total serum cholesterol, Clinical Chemistry, 20: 470-475] and glucose, [R. Konig, H. Dauwalder and R. Richterich (1971). Vergleichende Bestimmunogen der Uringlucosekonzentration mit der Polarimetrie und einer enzymatischen Methode (Hexokinase/Glucose-6-Phosphat-Dehydrogenase), Schweiz. Med. Wschr., 101: 860-866] by enzymatic procedures.

Setting [5] is: read-out: Fatty Acid Synthesis 3H2O.
The mark [6] stands for this setting: read-out: Fatty Acid Synthesis [14C]alanine.
[7] abbreviates: Experiment 1, di-(N-methylglucamine), 325 mg/kg p.o.
[8] abbreviates: Experiment 1, ethanolate, 145 mg/kg p.o.
Setting [9] is: Experiment 1, sodium, 140 mg/kg p.o.

Like-named read-outs stand apart in the source and are kept apart here.

Turning to `CC[C@@H](C(=O)[C@@H](C)[C@@H](O)[C@H](C)CCc1c(Br)cc(C)c(O)c1C(=O)O)[C@H]1O[C@](CC)([C@H]2CC[C@](O)(CC)[C@H](C)O2)C[C@@H]1C` [Bromolasalocid, di-(N-methylglucamine)], the Ki at human pancreatic lipase is 160 µM.
On to `CC[C@@H](C(=O)[C@@H](C)[C@@H](O)[C@H](C)CCc1c(Br)cc(C)c(O)c1C(=O)O)[C@H]1O[C@](CC)([C@H]2CC[C@](O)(CC)[C@H](C)O2)C[C@@H]1C` [Bromolasalocid, Ethanolate], for which, at human pancreatic lipase, the Ki is 100 µM.
On to `CC[C@@H](C(=O)[C@@H](C)[C@@H](O)[C@H](C)CCc1c(Br)cc(C)c(O)c1C(=O)O)[C@H]1O[C@](CC)([C@H]2CC[C@](O)(CC)[C@H](C)O2)C[C@@H]1C` [Bromolasalocid, Na^+], for which the Ki on human pancreatic lipase came to 50 µM. In addition, in assay [1] (setting [5]), the activity at 500 µM was found to be 14% and the activity at 1000 µM turned out to be 22%. For the same molecule, in assay [1] (setting [6]), the activity at 500 µM came to 0% and the activity at 1000 µM amounted to 0%.
Take `CC[C@@H](C(=O)[C@@H](C)[C@@H](O)[C@H](C)CCc1c(Br)cc(C)c(O)c1C(=O)O)[C@H]1O[C@](CC)([C@H]2CC[C@](O)(CC)[C@H](C)O2)C[C@@H]1C` [Bromolasalocid]: the IC50 on pancreatic lipase worked out at 600 µM. Also, the “Area under curve (corn oil absorption)” value is reported as 660 in assay [2] (setting [7]), 704 in assay [2] (setting [8]) and 659 in assay [2] (setting [9]). The results for the “Area under curve, % of control” value in assay [2] (setting [7]), in assay [2] (setting [8]) and in assay [2] (setting [9]) were 60 % of control, 64 % of control and 60 % of control, respectively.
For the molecule Monensin, in assay [3], the “Fatty Acid Synthesis 3H2O converted” value is given as 14.8 ± 4.0 μmoles per 1 g liver in 30 min and the “Fatty Acid Synthesis [14C]alanine converted” value is recorded as 209 ± 64 nmoles per 1 g liver in 30 min. In assay [4], the “Food Consumption” value is on record as 16.1 ± 1.4 g.
Turning to `CC/C(=C\C=C\[C@@H]1C=C[C@@H]2[C@@H](CC)CC[C@H]2[C@@H]1C(=O)c1ccc[nH]1)[C@@H]1O[C@@H]([C@@H](C)C(=O)O)CC[C@@H]1C` [X-14547A], on pancreatic lipase, the IC50 was 700 µM.
